Drawing on PMC8161536, “Structure-tuned membrane active Ir-complexed oligoarginine overcomes cancer cell drug resistance and triggers immune responses in mice” (Chemical Science, 2020), this text covers IC50 for 8 compounds.

What all share (type): cell-based
The subject of one test is A549/DDP. As to the kind of experiment: MTT cytotoxicity, cisplatin-resistant A549/DDP. As to conditions: Ir-cR8 24 h, cisplatin 48 h, unit inferred, test concentrations in μM, read-out: Antiproliferative activity (IC50) A549/DDP. The procedure: (Waters Corp., USA) The gradient mobile phase consisted of acetonitrile (A) and H2O (B) both containing […] A typical 15 min sample run consisted of 2 min of 20% solvent A and 80% solvent B followed by an increment of solvent A up to 23% for the remaining 2 min. Then the proportion of solvent A was increased to 45% in the following 8 min and decreased to 20% in the last 3 min. The analytes were monitored by a photo diode array (PDA) detector set at 220 nm and 254 nm and the flow rate was set to 0.3 mL min-1. The separated metallopeptides were collected to lyophilized and quantified by ICP-MASS, then for MTT assay. Circular dichroism assay of Ir-peptides […] The collected Ir- peptides were lyophilized and quantified by ICP-MASS. The Ir-peptides, isomers, mixture of two isomers were diluted to same concentration for circular dichroism test. (Chirascan-plus, Applied photophysics) LogP assay Water and octanol (1:1, v/v) were saturated for 24 h at room temperature and separated as aqueous phase and oil phase. Ir- […] […] CCK-8 of 20 μL was added in each well and incubated for 4 h, then the absorbance at 450 nm of each well was obtained by microplate spectrophotometer to calculate the cell viability. […] The absorbance […]

The subject of another test is HeLa cells. As to conditions: 24 h. The procedure: (Waters Corp., USA) The gradient mobile phase consisted of acetonitrile (A) and H2O (B) both containing […] A typical 15 min sample run consisted of 2 min of 20% solvent A and 80% solvent B followed by an increment of solvent A up to 23% for the remaining 2 min. Then the proportion of solvent A was increased to 45% in the following 8 min and decreased to 20% in the last 3 min. The analytes were monitored by a photo diode array (PDA) detector set at 220 nm and 254 nm and the flow rate was set to 0.3 mL min-1. The separated metallopeptides were collected to lyophilized and quantified by ICP-MASS, then for MTT assay. Circular dichroism assay of Ir-peptides […] The collected Ir- peptides were lyophilized and quantified by ICP-MASS. The Ir-peptides, isomers, mixture of two isomers were diluted to same concentration for circular dichroism test. (Chirascan-plus, Applied photophysics) LogP assay Water and octanol (1:1, v/v) were saturated for 24 h at room temperature and separated as aqueous phase and oil phase. Ir- […] Samples were stirred for 24 h at room […] the standard curves by fluorescence spectrophotometer, Ex Slit:5.0 nm, Em Slit:5.0 nm, 650 V. Then the aqueous phase's fluorescence intensities in samples containing both oil and aqueous phases were scanned, the concentration in aqueous phase of each Ir-peptide was calculated by standard curve, the Ir-peptide's initial concentration in aqueous phase minus 24 hour's concentration in aqueous phase to obtain the 24 hour's concentration in oil phase, logP=log(c oil/caqueous). Cell culture […] cells were incubated in RPMI 1640 medium with 10% fetal bovine serum, 37 °C, 5%CO2. […] Pharmacology Department, College of Pharmaceutical Sciences, Soochow University. […] obtained from Institute of Hematology and Blood Diseases Hospital, Chinese Academy of Medical Sciences & Peking Union Medical College. Induction of cisplatin resistant A549/DDP cells […] entering the logarithmic growth period. Then the medium was replaced by DMEM medium containing 10% fetal bovine serum and 0.125 μM cisplatin. The cells were incubated with cisplatin for 24 h and the medium was removed and no cisplatin DMEM […] The induction followed this […] The concentration of cisplatin was twice as much as before in each induction. Then the cells were incubated with DMEM containing 10% fetal bovine serum and 4 μM cisplatin for two months and medium containing cisplatin was replaced by no-cisplatin medium two weeks before experiment. Cytotoxicity HeLa cells were cultured in 96-well microplates, 8*10^3 cells per well overnight. […] CCK-8 of 20 μL was added in each well and incubated for 4 h, then the absorbance at 450 nm of each well was obtained by microplate spectrophotometer to calculate the cell viability. […] The absorbance […]

The subject of a further test is A549/Taxol. As to the kind of experiment: MTT cytotoxicity, paclitaxel-resistant A549/Taxol. The conditions noted are these: read-out: Antiproliferative activity (IC50) A549/Taxol. The procedure:
mm × 2.1 mm column. (Waters Corp., USA) The gradient mobile phase consisted of acetonitrile (A) and H2O (B) both containing
0.1% trifluoroacetic acid. A typical 15 min sample run consisted of 2 min of 20% solvent A and 80% solvent B followed by an
increment of solvent A up to 23% for the remaining 2 min. Then the proportion of solvent A was increased to 45% in the
following 8 min and decreased to 20% in the last 3 min. The analytes were monitored by a photo diode array (PDA) detector
set at 220 nm and 254 nm and the flow rate was set to 0.3 mL min-1. The separated metallopeptides were collected to
lyophilized and quantified by ICP-MASS, then for MTT assay.
Circular dichroism assay of Ir-peptides
peptides were lyophilized and quantified by ICP-MASS. The Ir-peptides, isomers, mixture of two isomers were diluted to same
concentration for circular dichroism test. (Chirascan-plus, Applied photophysics)
Water and octanol (1:1, v/v) were saturated for 24 h at room temperature and separated as aqueous phase and oil phase. Ir- […]
the standard curves by fluorescence spectrophotometer, Ex Slit:5.0 nm, Em Slit:5.0 nm, 650 V. Then the aqueous phase’s
fluorescence intensities in samples containing both oil and aqueous phases were scanned, the concentration in aqueous phase
of each Ir-peptide was calculated by standard curve, the Ir-peptide’s initial concentration in aqueous phase minus 24 hour’s […]

The next test deals with HL60/ADR. As to the kind of experiment: CCK-8 cytotoxicity, doxorubicin-resistant HL60/ADR. The conditions noted are these: Homo sapiens, read-out: Antiproliferative activity (IC50) HL60/ADR.
A further test concerns HL60. As to the kind of experiment: CCK-8 cytotoxicity, HL60. The conditions noted are these: Homo sapiens, HL-60; read-out: Antiproliferative activity (IC50) HL60.
In the next test the test system is HL60/Ara-C. As to the kind of experiment: CCK-8 cytotoxicity, cytarabine-resistant HL60/Ara-C. The conditions noted are these: Homo sapiens, HL-60; read-out: Antiproliferative activity (IC50) HL60/Ara-C.

A value given as a limit tells only on which side of the number the result lay.

For the compound `N.N.[Cl][Pt][Cl]` [Cisplatin, cisplatin], the IC50 in the test on A549/DDP is more than 128 µM. Compound Ac-HHRRR-NH2 [aR3] had an IC50 in the test with HeLa cells of more than 100 µM. Turning to Ac-HRRRRH-NH2 [cR4], in the test with HeLa cells, the IC50 was more than 100 µM. Still for that read-out and setting: under Ac-HRRRH-NH2 [cR3] stands more than 100 µM.

Regarding `CC(=O)O[C@H]1C(=O)[C@@]2(C)[C@H]([C@H](OC(=O)c3ccccc3)[C@]3(O)C[C@H](OC(=O)[C@H](O)[C@@H](NC(=O)c4ccccc4)c4ccccc4)C(C)=C1C3(C)C)[C@]1(OC(C)=O)CO[C@@H]1C[C@@H]2O` [Paclitaxel, paclitaxel], the IC50 with A549/Taxol stood at 25.8 ± 0.5 µM. Turning to Ac-HHRRRR-NH2 [aR4], the IC50 with HeLa cells was more than 100 µM. As for `COc1cccc2c1C(=O)c1c(O)c3c(c(O)c1C2=O)C[C@@](O)(C(=O)CO)C[C@@H]3O[C@H]1C[C@H](N)[C@H](O)[C@H](C)O1` [Doxorubicin, doxorubicin], the IC50 in the test on HL60/ADR came out at 8.3 ± 0.2 µM; in the test on HL60 it was 130 ± 60 nM.

For the compound `Nc1ccn([C@@H]2O[C@H](CO)[C@@H](O)[C@@H]2O)c(=O)n1` [Cytarabine, cytarabine], the figures for the IC50 in the test with HL60/Ara-C and in the test with HL60 were more than 128 µM and 70 ± 3 nM, respectively.
